Series [1] in a line: Plasma protein binding (ultrafiltration). It is filed as in vitro ADME. The settings on record: mouse or human plasma (species not given), 37° C. On the procedure: Plasma protein binding studies were performed as follows. Compounds were dissolved in DMSO, then diluted into either fresh or thawed samples of mouse or human plasma and incubated at 37° C. Time points of 50 μL were mixed with 100 μl of acetonitrile and centrifuged at ˜14000 rpm for 3 minutes. A 100 μL aliquot was removed from the supernatant and set aside for analysis to indicate compound in the total fraction. The remaining supernatant was transferred onto a Microcon ultrafiltration device fitted with a YM10 membrane and centrifuged to separate protein-bound material. A 50 μL aliquot of the protein-free filtrate was mixed with 100 μL of acetonitrile, centrifuged at ˜14000 rpm for 3 minutes, then 100 μL of the supernatant was collected and analyzed to determine the amount of compound not protein bound. The amount of compound in the total sample and in the protein-free fraction were determined by HPLC analysis against authentic standards.

Series [2] concerns human ovarian cancer cell line SKOV-3. In words: SRB cytotoxicity assay, SKOV3. It is filed as cell-based. The protocol: (§1) Compounds of the invention may be screened for cytotoxicity using conventional assays well known to those skilled in the art. For example, cytotoxicity of the compounds may be determined by the SRB assay as disclosed in Skehan et al., J. Natl. Cancer Inst. 82:1107-1112 (1990), which is incorporated herein by reference. In the SRB assay, the following cultured cells are trypsinized, counted and diluted to the following concentrations per 100 μl with growth medium: MCF-7, 5000; NCI/ADR-Res, 7500; NCI-H460, 5000; A549, 5000; Skov3, 7500; and SF-268, 7500. The cells are seeded at 100 μl/well in 96-well microtiter plates. Twenty-four hours later, 100 μl of a test epothilone compound of the invention (ranging in concentration from 1000 nM to 0.001 nM diluted in growth medium) is added to each well. After incubation, with the compound for a period of days, the cells are fixed with 100 μl of 10% trichloroacetic acid (“TCA”) at 4 degrees for 1 hour, and stained with 0.2% sulforhodamine B (SRB)/1% acetic acid, and the bound SRB is then extracted with 200 μl of 10 mM Tris base. The amount of bound dye is determined by OD 515 nm, which correlates to the total cellular protein contents. The data is analyzed using standard statistical methodologies (such as those available with the software sold as KALEIDA GRAPH® by Synergy Software of Reading, Pa.) and the IC50s are calculated.
(§2) Human breast carcinoma cell line MCF-7, multi-drug resistant breast carcinoma cell line NCI/ADR, were obtained from the National Cancer Institute. Human non-small cell lung cancer cell line A549 and human ovarian cancer cell line SKOV-3 were obtained from American Type Culture Collection (Manassas, Va.). All cell lines were maintained in RPMI-1640 medium (Gibco/BRL, Rockville, Md.) supplemented with 2 mM L-glutamine, 25 mM HEPES and 10% FBS (Hyclone, Logan, Utah). Cells were maintained in a humidified incubator at 37° C. in 5% CO2.
(§3) Tumor cells were seeded in 100 μl at 5000 (MCF-7), 7500 (NCI/ADR), 5000 (A549) and 7500 (SKOV3) cells per well in 96-well plates. Cells were allowed to adhere for 24 hours. Each compound ranging from 0.001 to 1000 nM in 100 μl was added to cells in duplicate wells. After 3 days, cells were fixed at 4° C. for 1 hour with 10% trichloroacetic acid and then stained with 0.2% sulforhodamine B (SRB)/1% acetic acid for 20 minutes at room temperature. The unbound dye was rinsed away with 1% acetic acid, and the bounded SRB was then extracted with 200 μl of 10 mM Tris base. The absorbance was measured at 515 nm using a 96-well microtiter plate reader (Spectra Max 250, Molecular Devices). The IC50 values were calculated using a KaleidaGraph program. The experiments were performed twice.
On the technique in general: In SRB staining, fixed cells bind dye roughly in proportion to their protein.

Series [3] relates to Human breast carcinoma cell line MCF-7. In words: SRB cytotoxicity assay, MCF-7. The format is cell-based. On the procedure: as §1, §2, §3
Series [4] concerns multi-drug resistant breast carcinoma cell line NCI/ADR. As to the kind of experiment: SRB cytotoxicity assay, NCI/ADR. It is filed as cell-based, human. On the procedure: as §1, §2, §3
Another series concerns the target T1, CYP2C9 (Homo sapiens, UniProt P11712).
T1 construct: purchased BD GenTest, Woburn, Mass
In words: Cytochrome P450 inhibition, CYP2C9. The format is in vitro ADME.

The next series concerns the target T2, CYP3A4 (Homo sapiens, UniProt P08684).
T2 construct: purchased BD GenTest, Woburn, Mass
As to the kind of experiment: Cytochrome P450 inhibition (BD GenTest kit, BFC substrate), CYP3A4. It is filed as in vitro ADME. The source says: Following the procedure of Examples 39 (when R=methyl) and 42 (when R=CF3), the additional compounds shown in Table 2 were made by replacing (2-(tert-butyldimethyl-silyloxy)-methylthiazol-4-yl)methyltri-n-butyl-phosphonium chloride with the corresponding phosphonium chloride. Cytotoxicity data (Table 2) was obtained as described in Example 48. Cytochrome P450 inhibition data (Table 3) was obtained using the initial rate method against BFC substrate.
Cytochrome P450 inhibition measurements were performed using a commercially-available kit (BD GenTest, Woburn, Mass.), using BFC as substrate against CYP3A4.

Another series concerns the target T3, CYP2C19 (Homo sapiens, UniProt P33261).
T3 construct: purchased BD GenTest, Woburn, Mass
In words: Cytochrome P450 inhibition, CYP2C19. The format is in vitro ADME.

Series [5] is described as follows: Half-life in human plasma. The following applies: fresh human plasma. On the procedure:
Half-lives of compounds in fresh mouse and human plasma were determined by dissolving the compounds in DMSO and adding aliquots to samples of mouse or human plasma. At Time Zero, aliquotted 75 μl from each sample and added 150 μl of acetonitrile. Centrifuged the white precipitate at 13500 rpm for 3 minutes. Transferred all the clear supernatant into another microcentrifuge tube and repeated the centrifuging step (13500 rpm/3 min). Carefully pipetted 150 μl of the clear supernatant into labeled HPLC sample tubes and tried to avoid pipetting any protein pellets. The samples were analyzed by HPLC to measure remaining compound at each time point by comparison with authentic standards.

The test system of series [6] is Human non-small cell lung cancer cell line A549. As to the kind of experiment: SRB cytotoxicity assay, A549. It is filed as cell-based. The protocol: as §1, §2, §3
Series [7] can be described thus: Half-life in mouse plasma. The following applies: frozen mouse plasma. The protocol:
[…] At Time Zero, aliquotted 75 μl from each sample and added 150 μl of acetonitrile. Centrifuged the white precipitate at 13500 rpm for 3 minutes. Transferred all the clear supernatant into another microcentrifuge tube and repeated the centrifuging step (13500 rpm/3 min). Carefully pipetted 150 μl of the clear supernatant into labeled HPLC sample tubes and tried to avoid pipetting any protein pellets. The samples were analyzed by HPLC to measure remaining compound at each time point by comparison with authentic standards.

Series [8] can be described thus: Compound solubility in phosphate-buffered saline. The format is physicochemical. The settings on record: aqueous buffer, kinetic from dmso stock; 5 μL of 20 mg/mL DMSO stock in 95 μL phosphate-buffered saline, 0.45 micron filter, HPLC. The protocol: Compound solubility was determined as follows: 5 μL of stock solution (at 20 mg/mL in DMSO) was added to 95 μL of phosphate-buffered saline. After being vortexed for about 10 seconds, the solution/suspension was filtered through a 0.45 micron filter and the amount of analyte was quantitated by HPLC. Solubilities (mg/mL) determined were as follows: epothilone D, <0.06; trans-9,10-dehydroepothilone D, <0.06; 21-OH-26-F3-trans-9,10-dehydroepothilone D, 0.1; 21-amino-trans-9,10-dehydroepothilone D, >0.6; 21-amino-26-F3-trans-9,10-dehydroepothilone D, >0.6; 26-F3-trans-9,10-dehydroepothilone D, <0.06; 21-OH-trans-9,10-dehydroepothilone D, 0.1; KOSN 1635, <0.02; KOSN 1632, 0.12.

Setting [9] is: Homo sapiens, SK-OV-3, 72 h, Table 1, 3 days, SRB, read-out: IC50 SKOV3.
Where [10] appears, read: Homo sapiens, MCF7, 72 h, Table 1, 3 days, SRB, read-out: IC50 MCF-7.
[11] abbreviates: Homo sapiens, NCI/ADR-RES, 72 h, Table 1, 3 days, SRB, read-out: IC50 NCI/ADR.
Setting [12] is: Homo sapiens, A549, 72 h, Table 1, 3 days, SRB, read-out: IC50 A549.
Setting [13] is: Table 2, as described in Example 48, read-out: IC50 (nM) Skov.
The mark [14] stands for this setting: Table 2, as described in Example 48, read-out: IC50 (nM) MCF-7.
The mark [15] stands for this setting: Table 2, as described in Example 48, read-out: IC50 (nM) NCI/ADR.
Where [16] appears, read: Table 2, as described in Example 48, read-out: IC50 (nM) A549.

Structures are written as SMILES. Like-named read-outs stand apart in the source and are kept apart here.

T3 sequence (P33261 whole entry): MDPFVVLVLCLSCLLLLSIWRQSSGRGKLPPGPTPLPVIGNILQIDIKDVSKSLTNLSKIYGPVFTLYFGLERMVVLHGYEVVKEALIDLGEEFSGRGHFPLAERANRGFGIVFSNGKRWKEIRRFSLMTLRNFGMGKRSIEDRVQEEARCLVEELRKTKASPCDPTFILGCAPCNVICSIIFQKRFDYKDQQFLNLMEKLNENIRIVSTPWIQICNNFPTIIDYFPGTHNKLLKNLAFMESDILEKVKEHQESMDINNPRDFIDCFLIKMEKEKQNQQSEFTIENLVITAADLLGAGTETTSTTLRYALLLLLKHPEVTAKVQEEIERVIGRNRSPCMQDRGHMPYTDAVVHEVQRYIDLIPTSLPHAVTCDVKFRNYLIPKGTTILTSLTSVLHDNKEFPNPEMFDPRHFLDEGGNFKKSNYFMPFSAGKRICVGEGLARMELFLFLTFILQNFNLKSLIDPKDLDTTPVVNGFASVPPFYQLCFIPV
T1 sequence (P11712 whole entry): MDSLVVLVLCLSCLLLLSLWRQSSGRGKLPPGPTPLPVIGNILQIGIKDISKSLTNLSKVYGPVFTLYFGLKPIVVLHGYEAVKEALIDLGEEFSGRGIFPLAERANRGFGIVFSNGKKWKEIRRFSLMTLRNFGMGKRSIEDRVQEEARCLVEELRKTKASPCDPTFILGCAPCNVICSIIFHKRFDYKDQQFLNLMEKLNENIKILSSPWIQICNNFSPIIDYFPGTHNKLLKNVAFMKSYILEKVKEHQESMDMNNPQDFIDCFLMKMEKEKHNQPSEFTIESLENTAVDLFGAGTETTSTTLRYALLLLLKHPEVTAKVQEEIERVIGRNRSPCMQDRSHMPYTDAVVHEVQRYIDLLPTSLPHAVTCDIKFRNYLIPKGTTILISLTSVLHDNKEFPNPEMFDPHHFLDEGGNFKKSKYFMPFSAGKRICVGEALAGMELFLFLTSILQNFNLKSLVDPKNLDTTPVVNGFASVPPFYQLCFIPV
T2 sequence (P08684 whole entry): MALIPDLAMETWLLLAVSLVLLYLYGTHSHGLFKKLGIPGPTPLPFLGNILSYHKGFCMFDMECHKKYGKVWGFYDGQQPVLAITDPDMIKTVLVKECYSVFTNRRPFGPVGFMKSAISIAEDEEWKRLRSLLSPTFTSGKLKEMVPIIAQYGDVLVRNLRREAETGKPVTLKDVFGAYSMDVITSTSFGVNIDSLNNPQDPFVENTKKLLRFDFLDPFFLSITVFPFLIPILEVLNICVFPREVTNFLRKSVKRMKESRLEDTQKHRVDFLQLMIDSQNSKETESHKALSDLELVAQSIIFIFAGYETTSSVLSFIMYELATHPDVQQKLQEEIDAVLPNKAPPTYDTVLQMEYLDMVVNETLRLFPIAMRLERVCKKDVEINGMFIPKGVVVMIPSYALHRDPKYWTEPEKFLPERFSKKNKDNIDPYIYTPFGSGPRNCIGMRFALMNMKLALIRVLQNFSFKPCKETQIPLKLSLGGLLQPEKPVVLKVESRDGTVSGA

As a reminder, the half-life is how long it takes for the measured level to halve. Read a low half-life as fast loss. The solubility is the dissolved amount per volume that the medium holds. Read a high solubility as much dissolved substance. With `C/C1=C/C[C@@H](/C(C)=C/c2csc(C)n2)OC(=O)C[C@H](O)C(C)(C)C(=O)[C@H](C)[C@@H](O)[C@@H](C)/C=C/C1` (relative stereo) [9,10-dehydroepothilone D, trans-9,10-dehydroepothilone D], the “percentage of compound protein bound” value in series [1] is given as 96.6%. Moreover, the IC50 in [2] (setting [9]) amounted to 6.2 nM; in [3] (setting [10]), 2 nM; in series [4] (setting [11]), 6.2 nM; against CYP2C9 (human), 10.8 µM; against CYP3A4 it was 1.6 µM; against CYP2C19 (human), 2 µM. Besides, the IC50 in series [6] (setting [12]) worked out at 4.7 nM. For the same compound, the results for the half-life in series [5] and in series [7] were over 1440 min and 47 min, respectively. Also, the solubility in series [8] was under 0.06 mg/mL.
Regarding `C/C1=C/C[C@@H](/C(C)=C/c2ccc3ccccc3n2)OC(=O)C[C@H](O)C(C)(C)C(=O)[C@H](C)[C@@H](O)[C@@H](C)/C=C/C1` [17-des(2-methyl-4-thiazolyl)-17-(2-quinolyl)-9,10-dehydropeothilone D], the IC50 in series [2] (setting [9]) was 19 nM; in series [3] (setting [10]), 8.9 nM; in series [4] (setting [11]) it was 24 nM; in series [6] (setting [12]), 25 nM.
Turning to `C/C(=C\c1csc(CN)n1)[C@@H]1C/C=C(/C(F)(F)F)C/C=C/[C@H](C)[C@H](O)[C@@H](C)C(=O)C(C)(C)[C@@H](O)CC(=O)O1` [21-amino-9,10-dehydro-26-trifluoroepothilone D], the IC50 in series [2] (setting [9]) worked out at 40 nM; in [3] (setting [10]), 9.7 nM; in series [4] (setting [11]), 330 nM; in [6] (setting [12]), 35 nM. This compound gave a solubility in [8] of over 0.6 mg/mL.
Consider `C/C1=C/C[C@@H](/C(C)=C/n2nnc3ccccc32)OC(=O)C[C@H](O)C(C)(C)C(=O)[C@H](C)[C@@H](O)[C@@H](C)/C=C/C1` [KOSN-1674], for which the IC50 in [2] (setting [13]) amounted to 50 nM; in [3] (setting [14]) it was 34 nM; in [4] (setting [15]), 180 nM; in series [6] (setting [16]) it was 42 nM.
As for `C/C1=C/C[C@@H](/C(C)=C/c2cccnc2)OC(=O)C[C@H](O)C(C)(C)C(=O)[C@H](C)[C@@H](O)[C@@H](C)/C=C/C1` [KOSN-1690], the IC50 came out at 39 nM in [2] (setting [13]), 35 nM in series [3] (setting [14]), 110 nM in series [4] (setting [15]) and 38 nM in [6] (setting [16]).
Consider `C/C1=C/C[C@@H](/C(C)=C/c2ccc(CO)cn2)OC(=O)C[C@H](O)C(C)(C)C(=O)[C@H](C)[C@@H](O)[C@@H](C)/C=C/C1` [KOSN-1703], for which the IC50 in series [2] (setting [13]) came to 4.5 nM; in [3] (setting [14]), 0.61 nM; in series [4] (setting [15]), 7.1 nM; against CYP2C9, 4 µM; against CYP2C19, 10.2 µM; in series [6] (setting [16]) it was 2.4 nM.
As to `C/C1=C/C[C@@H](/C(C)=C/c2c[nH]cn2)OC(=O)C[C@H](O)C(C)(C)C(=O)[C@H](C)[C@@H](O)[C@@H](C)/C=C/C1` [KOSN-1712], the IC50 in [2] (setting [13]) amounted to 37 nM; in series [3] (setting [14]) it was 20 nM; in series [4] (setting [15]), 220 nM; in series [6] (setting [16]), 31 nM.
Regarding `C/C1=C/C[C@@H](/C(C)=C/c2cc(C)on2)OC(=O)C[C@H](O)C(C)(C)C(=O)[C@H](C)[C@@H](O)[C@@H](C)/C=C/C1` [KOSN-1724], the IC50 in series [2] (setting [13]) came to 5.3 nM; in series [3] (setting [14]), 2.5 nM; in series [4] (setting [15]) it was 6.1 nM; against CYP2C9, 12.9 µM; against CYP2C19, 10.9 µM; in series [6] (setting [16]) it was 5.3 nM.
On to `C/C1=C/C[C@@H](/C(C)=C/c2csc(CN3CCOCC3)n2)OC(=O)C[C@H](O)C(C)(C)C(=O)[C@H](C)[C@@H](O)[C@@H](C)/C=C/C1` [KOSN-1727], for which the IC50 was determined as 490 nM in [2] (setting [13]), 390 nM in series [3] (setting [14]), 410 nM in [4] (setting [15]) and 420 nM in series [6] (setting [16]).
Take `COc1ccnc(/C=C(\C)[C@@H]2C/C=C(/C)C/C=C/[C@H](C)[C@H](O)[C@@H](C)C(=O)C(C)(C)[C@@H](O)CC(=O)O2)c1` [KOSN-1756]: the IC50 in series [2] (setting [13]) stood at 4 nM; in series [3] (setting [14]), 2.1 nM; in [4] (setting [15]), 4.9 nM; at CYP2C9, 7.1 µM; on CYP2C19 it was 1.9 µM; in series [6] (setting [16]), 4 nM.
Turning to `COC(=O)c1ccc(/C=C(\C)[C@@H]2C/C=C(/C)C/C=C/[C@H](C)[C@H](O)[C@@H](C)C(=O)C(C)(C)[C@@H](O)CC(=O)O2)nc1` [KOSN-1765], the IC50 in series [2] (setting [13]) amounted to 220 nM; in series [3] (setting [14]), 44 nM; in [4] (setting [15]), 360 nM; in [6] (setting [16]), 350 nM.

Source of the values: US20040152708A1, “Trans-9,10-dehydroepothilone C and D, analogs thereof and methods of making the same” (priority 2002, published 2004).
